Laboratory results: ChEMBL document CHEMBL4507273 (2021)

What was measured:
[1] = target: Serine/threonine-protein kinase PAK 3 (Homo sapiens) (UniProt O75914); details: Compound concentration 1000.0 nM
[2] = target: Serine/threonine-protein kinase PAK 6 (Homo sapiens) (UniProt Q9NQU5); details: Compound concentration 1000.0 nM
[3] = target: Ribosomal protein S6 kinase alpha-5 (Homo sapiens) (UniProt O75582); details: Compound concentration 1000.0 nM
[4] = target: 5-hydroxytryptamine receptor 1B (Homo sapiens, UniProt P28222); experiment: GPCRScan assay: inhibition of 5-HT1B; set-up: radioligand conc. used [nm] 0.6 – 1.5, parental cells stable HEK
Sequence of 5-hydroxytryptamine receptor 1B (P28222 whole entry): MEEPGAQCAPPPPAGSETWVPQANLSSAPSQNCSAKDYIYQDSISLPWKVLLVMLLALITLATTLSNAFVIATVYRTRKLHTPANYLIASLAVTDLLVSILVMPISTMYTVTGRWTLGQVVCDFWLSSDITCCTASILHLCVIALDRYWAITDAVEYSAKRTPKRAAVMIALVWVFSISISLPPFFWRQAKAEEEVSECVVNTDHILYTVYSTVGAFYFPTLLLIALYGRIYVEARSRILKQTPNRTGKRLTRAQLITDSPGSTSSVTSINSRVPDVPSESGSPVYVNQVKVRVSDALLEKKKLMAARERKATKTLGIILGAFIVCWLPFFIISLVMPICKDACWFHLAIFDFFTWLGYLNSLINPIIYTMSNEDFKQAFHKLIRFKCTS

[5] = target: Microtubule-associated serine/threonine-protein kinase 1 (Homo sapiens) (UniProt Q9Y2H9); details: Compound concentration 1000.0 nM
[6] = tested on: Mast/stem cell growth factor receptor Kit (Homo sapiens), P10721 [V559D,V654A]; details: Compound concentration 1000.0 nM
[7] = target: Ribosomal protein S6 kinase alpha-1 (Homo sapiens) (UniProt Q15418); details: Compound concentration 1000.0 nM
[8] = target: Wee1-like protein kinase 2 (Homo sapiens) (UniProt P0C1S8); details: Compound concentration 1000.0 nM
[9] = target: NUAK family SNF1-like kinase 2 (Homo sapiens) (UniProt Q9H093); details: Compound concentration 1000.0 nM
Sequence of NUAK family SNF1-like kinase 2 (Homo sapiens) (Q9H093 whole entry): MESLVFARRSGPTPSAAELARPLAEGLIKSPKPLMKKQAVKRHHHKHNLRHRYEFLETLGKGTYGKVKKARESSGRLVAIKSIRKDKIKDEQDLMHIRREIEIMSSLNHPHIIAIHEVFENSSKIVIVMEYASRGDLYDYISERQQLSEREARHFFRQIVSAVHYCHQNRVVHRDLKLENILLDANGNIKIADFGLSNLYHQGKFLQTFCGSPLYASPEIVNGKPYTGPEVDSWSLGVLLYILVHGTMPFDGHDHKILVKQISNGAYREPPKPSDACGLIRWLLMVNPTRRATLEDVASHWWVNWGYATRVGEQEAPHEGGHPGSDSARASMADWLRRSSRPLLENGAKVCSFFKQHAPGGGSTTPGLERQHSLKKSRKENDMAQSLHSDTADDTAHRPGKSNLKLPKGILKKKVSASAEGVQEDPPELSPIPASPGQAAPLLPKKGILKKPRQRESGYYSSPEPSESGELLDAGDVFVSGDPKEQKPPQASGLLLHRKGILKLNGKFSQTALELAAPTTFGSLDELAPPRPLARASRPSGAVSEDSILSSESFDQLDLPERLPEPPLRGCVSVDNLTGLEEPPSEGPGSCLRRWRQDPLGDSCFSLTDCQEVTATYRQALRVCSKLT

[10] = target: Interleukin-1 receptor-associated kinase 3 (Homo sapiens) (UniProt Q9Y616); details: Compound concentration 1000.0 nM
[11] = target: Atypical kinase COQ8A, mitochondrial (Homo sapiens) (UniProt Q8NI60); details: Compound concentration 1000.0 nM
[12] = target: Mitogen-activated protein kinase kinase kinase 1 (Homo sapiens) (UniProt Q13233); details: Compound concentration 1000.0 nM
[13] = target: Cyclin-dependent kinase 9 (Homo sapiens) (UniProt P50750); details: Compound concentration 1000.0 nM
[14] = target: Serine/threonine-protein kinase PLK2 (Homo sapiens) (UniProt Q9NYY3); details: Compound concentration 1000.0 nM
Sequence of Serine/threonine-protein kinase PLK2 (Homo sapiens) (Q9NYY3 whole entry, looked up, canonical isoform): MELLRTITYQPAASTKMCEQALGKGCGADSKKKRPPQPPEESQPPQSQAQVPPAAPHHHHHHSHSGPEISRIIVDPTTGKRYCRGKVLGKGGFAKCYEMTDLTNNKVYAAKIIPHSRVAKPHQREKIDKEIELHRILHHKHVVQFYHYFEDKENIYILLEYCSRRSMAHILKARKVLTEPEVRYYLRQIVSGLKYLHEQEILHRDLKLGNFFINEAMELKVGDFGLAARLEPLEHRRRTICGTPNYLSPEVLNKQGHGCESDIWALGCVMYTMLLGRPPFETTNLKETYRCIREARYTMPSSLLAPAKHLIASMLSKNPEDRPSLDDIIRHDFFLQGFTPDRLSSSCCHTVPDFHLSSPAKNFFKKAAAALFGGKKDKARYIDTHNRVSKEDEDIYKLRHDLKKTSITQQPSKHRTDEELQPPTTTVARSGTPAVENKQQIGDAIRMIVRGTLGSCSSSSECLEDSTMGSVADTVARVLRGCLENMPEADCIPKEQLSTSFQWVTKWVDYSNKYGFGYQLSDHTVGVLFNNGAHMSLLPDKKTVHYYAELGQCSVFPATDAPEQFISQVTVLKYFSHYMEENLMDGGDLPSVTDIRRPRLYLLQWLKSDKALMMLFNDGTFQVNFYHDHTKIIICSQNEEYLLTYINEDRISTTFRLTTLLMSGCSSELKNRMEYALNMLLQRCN

[15] = target: Casein kinase I isoform alpha-like (Homo sapiens) (UniProt Q8N752); details: Compound concentration 1000.0 nM
[16] = target: 5-hydroxytryptamine receptor 1E (Homo sapiens) (UniProt P28566); details: Compound concentration 10.0 uM
[17] = tested on: Epidermal growth factor receptor (Homo sapiens), P00533 [G719S]; details: Compound concentration 1000.0 nM
[18] = target: Mitogen-activated protein kinase 4 (Homo sapiens) (UniProt P31152); details: Compound concentration 1000.0 nM
[19] = target: Bone morphogenetic protein receptor type-2 (Homo sapiens) (UniProt Q13873); details: Compound concentration 1000.0 nM
Sequence of Bone morphogenetic protein receptor type-2 (Homo sapiens) (Q13873 whole entry): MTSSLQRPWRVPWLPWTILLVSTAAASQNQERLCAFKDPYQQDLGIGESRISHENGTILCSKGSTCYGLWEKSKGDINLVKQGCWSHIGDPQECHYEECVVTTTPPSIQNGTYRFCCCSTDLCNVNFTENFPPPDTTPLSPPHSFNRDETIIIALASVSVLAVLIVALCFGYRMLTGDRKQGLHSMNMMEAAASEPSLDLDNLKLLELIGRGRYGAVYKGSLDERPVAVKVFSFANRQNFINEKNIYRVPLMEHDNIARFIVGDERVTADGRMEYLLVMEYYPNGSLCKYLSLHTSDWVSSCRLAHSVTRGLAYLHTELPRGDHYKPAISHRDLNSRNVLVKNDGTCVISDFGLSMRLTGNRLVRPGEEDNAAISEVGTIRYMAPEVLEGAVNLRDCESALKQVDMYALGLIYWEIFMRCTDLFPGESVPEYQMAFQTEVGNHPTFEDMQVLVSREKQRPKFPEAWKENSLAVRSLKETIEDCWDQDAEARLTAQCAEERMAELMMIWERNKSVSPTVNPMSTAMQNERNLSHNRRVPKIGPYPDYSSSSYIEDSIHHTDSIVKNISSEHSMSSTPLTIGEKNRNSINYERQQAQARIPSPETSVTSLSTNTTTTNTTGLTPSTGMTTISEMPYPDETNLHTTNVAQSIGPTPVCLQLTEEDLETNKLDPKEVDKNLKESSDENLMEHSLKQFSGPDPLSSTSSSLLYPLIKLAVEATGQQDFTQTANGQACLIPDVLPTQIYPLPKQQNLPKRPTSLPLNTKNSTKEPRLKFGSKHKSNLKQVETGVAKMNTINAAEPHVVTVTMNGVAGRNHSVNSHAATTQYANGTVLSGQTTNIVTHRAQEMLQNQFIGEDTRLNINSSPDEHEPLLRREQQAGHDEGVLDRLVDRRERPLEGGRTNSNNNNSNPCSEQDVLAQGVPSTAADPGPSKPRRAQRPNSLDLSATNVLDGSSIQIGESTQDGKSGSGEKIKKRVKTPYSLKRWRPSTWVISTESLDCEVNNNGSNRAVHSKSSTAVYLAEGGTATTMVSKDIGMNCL

[20] = tested on: eIF-2-alpha kinase GCN2 (Homo sapiens), Q9P2K8 [S808G]; details: Compound concentration 1000.0 nM
[21] = tested on: Phosphatidylinositol 4,5-bisphosphate 3-kinase catalytic subunit alpha isoform (Homo sapiens), P42336 [Q546K]; details: Compound concentration 1000.0 nM
Sequence of Phosphatidylinositol 4,5-bisphosphate 3-kinase catalytic subunit alpha isoform (Homo sapiens), P42336 [Q546K] (P42336 whole entry Q546K, canonical isoform): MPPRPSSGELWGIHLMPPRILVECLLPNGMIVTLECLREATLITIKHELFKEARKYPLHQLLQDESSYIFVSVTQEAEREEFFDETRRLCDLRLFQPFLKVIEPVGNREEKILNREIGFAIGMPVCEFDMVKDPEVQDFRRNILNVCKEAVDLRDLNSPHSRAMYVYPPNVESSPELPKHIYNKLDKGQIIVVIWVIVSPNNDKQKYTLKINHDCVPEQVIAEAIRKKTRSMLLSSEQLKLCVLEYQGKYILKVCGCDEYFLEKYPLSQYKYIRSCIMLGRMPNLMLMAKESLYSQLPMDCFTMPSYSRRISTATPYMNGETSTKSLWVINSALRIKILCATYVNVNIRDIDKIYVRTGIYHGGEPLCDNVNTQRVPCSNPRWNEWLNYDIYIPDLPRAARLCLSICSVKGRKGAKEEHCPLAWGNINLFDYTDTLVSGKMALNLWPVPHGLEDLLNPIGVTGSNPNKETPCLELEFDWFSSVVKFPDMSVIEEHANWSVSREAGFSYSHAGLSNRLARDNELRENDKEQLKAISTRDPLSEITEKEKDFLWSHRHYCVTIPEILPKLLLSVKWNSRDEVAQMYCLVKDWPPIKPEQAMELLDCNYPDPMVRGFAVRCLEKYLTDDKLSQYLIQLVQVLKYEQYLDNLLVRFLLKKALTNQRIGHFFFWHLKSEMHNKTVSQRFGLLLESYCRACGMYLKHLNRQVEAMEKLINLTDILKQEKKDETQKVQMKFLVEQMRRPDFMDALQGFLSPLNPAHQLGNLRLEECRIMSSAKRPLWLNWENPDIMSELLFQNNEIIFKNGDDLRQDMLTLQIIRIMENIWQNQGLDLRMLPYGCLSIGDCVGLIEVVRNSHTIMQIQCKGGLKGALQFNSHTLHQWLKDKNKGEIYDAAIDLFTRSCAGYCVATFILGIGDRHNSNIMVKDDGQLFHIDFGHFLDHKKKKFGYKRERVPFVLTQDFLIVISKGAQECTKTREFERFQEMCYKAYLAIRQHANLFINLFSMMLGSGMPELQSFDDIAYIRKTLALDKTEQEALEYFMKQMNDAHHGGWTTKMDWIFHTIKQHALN

[22] = target: Macrophage colony-stimulating factor 1 receptor (Homo sapiens) (UniProt P07333); details: Compound concentration 1000.0 nM
[23] = target: Cyclin-dependent kinase 2 homolog (Plasmodium falciparum (isolate 3D7)) (UniProt P61075); details: Compound concentration 1000.0 nM
Sequence of Cyclin-dependent kinase 2 homolog (Plasmodium falciparum (isolate 3D7)) (P61075 whole entry): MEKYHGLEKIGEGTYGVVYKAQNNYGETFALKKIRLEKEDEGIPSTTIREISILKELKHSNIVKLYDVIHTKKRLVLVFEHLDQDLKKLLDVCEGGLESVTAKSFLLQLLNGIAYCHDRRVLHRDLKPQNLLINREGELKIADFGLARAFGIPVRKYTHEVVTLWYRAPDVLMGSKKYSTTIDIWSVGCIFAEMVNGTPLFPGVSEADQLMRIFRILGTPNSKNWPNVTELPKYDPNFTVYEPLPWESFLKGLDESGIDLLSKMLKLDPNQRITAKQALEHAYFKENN

[24] = target: Dual specificity mitogen-activated protein kinase kinase 2 (Homo sapiens) (UniProt P36507); details: Compound concentration 1000.0 nM
[25] = target: D(1A) dopamine receptor (Homo sapiens, UniProt P21728); experiment: GPCRScan assay: inhibition of D1; set-up: radioligand conc. used [nm] 0.6 – 1.3, parental cells HEKT
Sequence of D(1A) dopamine receptor (P21728 whole entry): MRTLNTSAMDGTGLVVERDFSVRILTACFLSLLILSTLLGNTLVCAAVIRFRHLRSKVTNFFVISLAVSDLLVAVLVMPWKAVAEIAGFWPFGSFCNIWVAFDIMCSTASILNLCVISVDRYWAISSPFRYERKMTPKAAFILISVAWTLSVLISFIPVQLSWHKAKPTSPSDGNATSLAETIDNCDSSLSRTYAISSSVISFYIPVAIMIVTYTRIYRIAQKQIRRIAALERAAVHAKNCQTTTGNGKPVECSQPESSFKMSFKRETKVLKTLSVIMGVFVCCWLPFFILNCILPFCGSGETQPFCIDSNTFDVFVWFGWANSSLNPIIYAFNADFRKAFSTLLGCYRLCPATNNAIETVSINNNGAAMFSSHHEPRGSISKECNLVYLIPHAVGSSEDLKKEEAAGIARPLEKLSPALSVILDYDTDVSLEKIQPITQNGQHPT

[26] = target: Receptor tyrosine-protein kinase erbB-3 (Homo sapiens) (UniProt P21860); details: Compound concentration 1000.0 nM
[27] = target: Uncharacterized serine/threonine-protein kinase SBK3 (Homo sapiens) (UniProt P0C264); details: Compound concentration 1000.0 nM
[28] = target: Serine/threonine-protein kinase MRCK alpha (Homo sapiens) (UniProt Q5VT25); details: Compound concentration 1000.0 nM
[29] = target: Calcium/calmodulin-dependent protein kinase kinase 2 (Homo sapiens) (UniProt Q96RR4); details: Compound concentration 1000.0 nM
[30] = tested on: Phosphatidylinositol 4,5-bisphosphate 3-kinase catalytic subunit alpha isoform (Homo sapiens), P42336 [H1047L]; details: Compound concentration 1000.0 nM
[31] = target: Muscle, skeletal receptor tyrosine-protein kinase (Homo sapiens) (UniProt O15146); details: Compound concentration 1000.0 nM
[32] = target: Casein kinase I isoform delta (Homo sapiens) (UniProt P48730); details: Compound concentration 1000.0 nM
[33] = target: Tyrosine-protein kinase BTK (Homo sapiens) (UniProt Q06187); details: Compound concentration 1000.0 nM
[34] = target: Receptor-interacting serine/threonine-protein kinase 2 (Homo sapiens) (UniProt O43353); details: Compound concentration 1000.0 nM
[35] = target: SRSF protein kinase 3 (Homo sapiens) (UniProt Q9UPE1); details: Compound concentration 1000.0 nM
[36] = target: Serine/threonine-protein kinase PRP4 homolog (Homo sapiens) (UniProt Q13523); details: Compound concentration 1000.0 nM
[37] = target: Phosphatidylinositol 4-kinase beta (Homo sapiens) (UniProt Q9UBF8); details: Compound concentration 1000.0 nM
[38] = target: Dual specificity protein kinase CLK4 (Homo sapiens) (UniProt Q9HAZ1); details: Compound concentration 1000.0 nM
[39] = target: Serine/threonine-protein kinase 32B (Homo sapiens) (UniProt Q9NY57); details: Compound concentration 1000.0 nM
[40] = target: 5-hydroxytryptamine receptor 3A (Homo sapiens) (UniProt P46098); details: Compound concentration 10.0 uM
[41] = target: Serine/threonine-protein kinase ULK3 (Homo sapiens) (UniProt Q6PHR2); details: Compound concentration 1000.0 nM
[42] = target: Serine/threonine-protein kinase DCLK3 (Homo sapiens) (UniProt Q9C098); details: Compound concentration 1000.0 nM
[43] = target: 5-hydroxytryptamine receptor 7 (Homo sapiens, UniProt P34969); details: Compound concentration 10.0 uM
Sequence of 5-hydroxytryptamine receptor 7 (P34969 whole entry, canonical isoform): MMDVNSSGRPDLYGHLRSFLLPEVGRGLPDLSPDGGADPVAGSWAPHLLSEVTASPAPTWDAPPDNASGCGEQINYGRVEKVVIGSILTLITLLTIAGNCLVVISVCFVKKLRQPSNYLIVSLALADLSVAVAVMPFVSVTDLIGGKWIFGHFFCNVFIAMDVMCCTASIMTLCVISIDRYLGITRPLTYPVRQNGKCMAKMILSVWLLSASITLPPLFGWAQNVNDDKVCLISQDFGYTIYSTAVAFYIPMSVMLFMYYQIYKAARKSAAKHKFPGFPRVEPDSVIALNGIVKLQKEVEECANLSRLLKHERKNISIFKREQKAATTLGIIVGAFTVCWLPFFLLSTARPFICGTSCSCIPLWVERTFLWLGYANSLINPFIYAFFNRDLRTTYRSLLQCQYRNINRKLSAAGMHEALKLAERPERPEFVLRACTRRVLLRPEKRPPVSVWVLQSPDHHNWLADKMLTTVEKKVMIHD

[44] = target: Casein kinase I isoform gamma-3 (Homo sapiens) (UniProt Q9Y6M4); details: Compound concentration 1000.0 nM

SMILES: CNCc1ccccc1-c1csc([C@H](C)Nc2nc(C)nc3cc(OC)c(OC)cc23)c1 [BAY-294]
- residual activity [1]: 87%
- residual activity [2]: 100%
- residual activity [3]: 82%
- Ki ([4]; read-out: Ki): 1760 nM
- residual activity [5]: 96%
- residual activity [6]: 100%
- residual activity [7]: 93%
- residual activity [8]: 100%
- residual activity [9]: 100%
- residual activity [10]: 83%
- residual activity [11]: 91%
- residual activity [12]: 97%
- residual activity [13]: 100%
- residual activity [14]: 83%
- residual activity [15]: 100%
- inhibition [16]: 10.8%
- residual activity [17]: 84%
- residual activity [18]: 95%
- residual activity [19]: 100%
- residual activity [20]: 100%
- residual activity [21]: 84%
- residual activity [22]: 91%
- residual activity [23]: 71%
- residual activity [24]: 100%
- Ki ([25]; read-out: Ki): 718 nM
- Ki ([25]; read-out: pKi (converted)): 562 nM
- residual activity [26]: 87%
- residual activity [27]: 100%
- residual activity [28]: 92%
- residual activity [29]: 82%
- residual activity [30]: 88%
- residual activity [31]: 90%
- residual activity [32]: 95%
- residual activity [33]: 89%
- residual activity [34]: 100%
- residual activity [35]: 89%
- residual activity [36]: 100%
- residual activity [37]: 74%
- residual activity [38]: 100%
- residual activity [39]: 100%
- inhibition [40]: 16%
- residual activity [41]: 88%
- residual activity [42]: 100%
- inhibition [43]: 70.7%
- residual activity [44]: 93%

SMILES: CNCc1ccccc1-c1csc([C@@H](C)Nc2nc(C)nc3cc(OC)c(OC)cc23)c1 [BAY-293]
- residual activity [1]: 86%
- residual activity [2]: 100%
- residual activity [3]: 89%
- Ki ([4]; read-out: Ki): 1410 nM
- Ki ([4]; read-out: pKi (converted)): 1350 nM
- residual activity [5]: 76%
- residual activity [6]: 89%
- residual activity [7]: 76%
- residual activity [8]: 100%
- residual activity [9]: 97%
- residual activity [10]: 75%
- residual activity [11]: 92%
- residual activity [12]: 72%
- residual activity [13]: 100%
- residual activity [14]: 82%
- residual activity [15]: 100%
- inhibition [16]: 5.81%
- residual activity [17]: 69%
- residual activity [18]: 94%
- residual activity [19]: 100%
- residual activity [20]: 99%
- residual activity [21]: 89%
- residual activity [22]: 91%
- residual activity [23]: 76%
- residual activity [24]: 82%
- Ki ([25]; read-out: Ki): 1270 nM
- residual activity [26]: 76%
- residual activity [27]: 100%
- residual activity [28]: 67%
- residual activity [29]: 100%
- residual activity [30]: 95%
- residual activity [31]: 93%
- residual activity [32]: 82%
- residual activity [33]: 90%
- residual activity [34]: 100%
- residual activity [35]: 84%
- residual activity [36]: 96%
- residual activity [37]: 82%
- residual activity [38]: 100%
- residual activity [39]: 100%
- inhibition [40]: 17.1%
- residual activity [41]: 78%
- residual activity [42]: 95%
- inhibition [43]: 76.2%
- residual activity [44]: 99%
